Values quoted from earlier work as cited in patent US20080227642A1, “Salts, aqueous liquid compositions containing salts of abscisic acid analogs and methods of their preparation” (priority 2007, published 2008).

Conditions: room temperature

## CC1=CC(=O)CC(C)(C)[C@@]1(O)/C=C/C(C)=C\C(=O)O [(S)-(+)-abscisic acid, 2-cis-,4-trans-(S)-(+)-abscisic acid]
  highest concentration that can be achieved in pure water: about 3000 ppm
